In US20240189244A1 (priority 2021, published 2024):
Structures can show the parent of a compound that is named as a salt.

Columns and labels:
[1] = test system: renal proximal tubule cells (RPTCs); assay type: cell-based, New Zealand white rabbits; conditions: for effect of inhibitor pretreatment on DEDC(NP) uptake by RPTCs: then 0.1 mg/mL DEDC(NP)s 2 h
Protocol: To assess uptake of DEDC(NP)s, RPTCs were grown in 35-mm tissue culture dishes as described above. DEDC(NP) dispersions were prepared by diluting nanoparticles into media and vortexed immediately prior to experiments. Cells were preincubated for 30 min with varying concentrations of either media or the drugs chlorpromazine hydrochloride (Sigma-Aldrich), nocodazole (Sigma-Aldrich), or simvastatin (Sigma-Aldrich). After pre-incubation, DEDC(NP)s were added at a final concentration of 0.1 mg/mL and incubated for 2 h at 37° C. Cells were washed in triplicate with media to ensure removal of nanoparticles adhered to the outer cell membrane. Cells were then fixed in 10% neutral buffered formalin and nuclei stained with 4′,6-diamidino-2-phenylindole (DAPI). Cells were imaged using the EVOS M5000 Imaging System (ThermoFisher, Waltham, MA) and fluorescence intensity was analyzed by ImageJ (NIH) (n=5 biological replicates).

[2] = test system: PGC-1α, ND1, NDUFS1 in left ventricle; test: Immunoblot of mitochondrial biogenesis markers in left ventricle of naive mice; conditions: 24 hours; formoterol 0.3 mg/kg or nanoparticles 0.04 mg/kg formoterol i.v.; vs control
Protocol: (§1) Male C57BL/6 mice were obtained from Charles River (Oakwood, MI) and housed in a room at a constant temperature of 22+2° C. with 12:12 hour light-dark cycles. […] At 24 hours post exposure, mice were euthanized and kidney and heart were harvested. All experiments were approved by The University of Arizona in accordance with the guidelines set forth by the National Institutes of Health Guide for the Care and Use of Laboratory Animals.

[3] = test system: Wistar rats; conditions: cited from earlier work
[4] = test system: C57BL/6 mice; test: Tail cuff heart rate and blood pressure, naive mice; conditions: 1-2 hours after 0.3 mg/kg formoterol
Protocol: as §1
(§2) The blood pressure and heart rates were measured with a non-invasive tail cuff device (CODA8, Kent Scientific, CT) which uses a volume-pressure method as previously described (Wang Y, Thatcher S E, Cassis L A. Measuring Blood Pressure Using a Noninvasive Tail Cuff Method in Mice. Methods Mol Biol. 2017; 1614:69-73). All measurements were performed on restrained, conscious animals located on a heating pad following the manufacturers protocol. […] At least 10 valid measurements were taken per animal.

[5] = test system: renal proximal tubule cells (RPTCs); test: Cell viability by resazurin reduction assay; conditions: formoterol 1-1000 nM, 24 hours
Protocol: The RPTCs were cultured on 35-mm tissue culture dishes with 1:1 DMEM:F-12 (without glucose, phenol red, or sodium pyruvate) as media supplemented with 15 mM HEPES buffer, 2.5 mM L-glutamine, 1 μM pyridoxine HCL, 15 mM sodium bicarbonate, and 6 mM lactate. Daily, hydrocortisone (50 nM), selenium (5 ng/mL), human transferrin (5 μg/mL), bovine insulin (10 nM), and L-ascorbic acid-2-phosphate (50 μM) were added to fresh culture medium. Confluent cells were used for all experiments.
Cultured RPTCs were grown on 96-well plates at a cell density of 5×10^3 cells/well for 96 h. […] The treatments were each prepared by dissolving or suspending the powders in culture media. […] Viability was assessed (n=6 technical replicates per biological replicate) by resazurin reduction assay as described previously (41). Detection was assessed using Synergy H1 Multi-Mode Reader (BioTek Instruments, Inc., Winooski, VT) with 544 nm excitation and 590 nm emission wavelengths. The relative viability of the cells was calculated as follows: […]
Detection was measured using Synergy H1 Multi-Mode Reader (BioTek Instruments, Inc., Winooski, VT) with 544 nm excitation and 590 nm emission wavelengths. Five biological replicates were used and viability of the cells was calculated as follows:

[6] = test system: renal proximal tubule cells (RPTCs); conditions: up to a concentration of 1000 nM, previous studies; cited from earlier work
[7] = test system: BTBR WT and ob/ob mice; test: Diabetic mice: cardiovascular fibrosis, heart weight and survival
Protocol: The efficacy of nanoparticle therapy was determined using BTBR wild type and obese diabetic mice (BTBR T^+ Itpr3^tf/J (WT) and BTBR.Cg-Lep^ob/WiscJ (ob/ob)) (The Jackson Laboratory, Bar Harbor, ME). […] Mice in the vehicle saline groups, Veh(Sal), received daily intraperitoneal injections of normal saline. Immediately following study initiation, 8 mice from both WT and ob/ob Veh(Sal) were euthanized and kidneys extracted for histological analysis. Remaining mice (n=8 per group) were treated for 8 weeks. Following the final week of treatment, mice were sacrificed and kidneys were perfused with normal saline with heparin (10 U/mL). Serum, kidneys and heart were collected for protein and histological analysis.
Cardiovascular fibrosis was measured by quantification of the fraction of trichrome-positive area in both interstitial and perivascular sections of the right ventricular wall. At least 15 sections were quantified per animal. All quantification was completed by an analyst blinded to treatment group.

[8] = test system: KIM-1, PGC-1α, ETC proteins, tight junction proteins in renal cortex; test: I/R AKI: renal cortex proteins by immunoblot and KIM-1 immunohistochemistry; assay type: in vivo, C57Bl/6 mice; conditions: 144 hours, daily treatment
Protocol: (§3) Mice were subjected to bilateral renal ischemia for 18-20 minutes or sham surgery as previously described (Funk J A, Schnellmann R G. Persistent disruption of mitochondrial homeostasis after acute kidney injury. Am J Physiol Renal Physiol 2012; 302: F853-864). Mice were allowed to recover without intervention for 24 hours and sorted into groups based on 24-hour serum creatinine levels prior to initiation of dosing. Mice were dosed either daily or at a reduced frequency at 24 hours and 96 hours post-injury (2-day dosing). […] Mice were given VS and FFD via intraperitoneal injection.

[9] = physchem; conditions: for solubility at 24 h: 25 °C, thermodynamic from solid
Protocol: For variable pH samples, solution pH was adjusted with either hydrochloric acid or sodium hydroxide solutions (1 M Sigma-Aldrich, St. Louis, MO). Vials were rotated gently for 24 hours at 25° C. as previously described (Aodah A, Pavlik A, Karlage K, Myrdal P B. Preformulation Studies on Piperlongumine. PLOS One. 2016; 11(3):e0151707). Test solutions were filtered using 0.45 μm PVDF or PTFE membrane filters (MilliporeSigma, Burlington, MA) for aqueous and organic solvents respectively.

[10] = test system: I/R injured mice; test: I/R AKI: cardiovascular function by tail cuff; conditions: 1-2 hours following administration
Protocol: as §3
as §2, with “Mouse” for “The”, “CT)” for “CT) which uses a volume-pressure method”, “Biol” for “Biol.”, “1614: 69-73).” for “1614:69-73).”, “manufacturer's” for “manufacturers”

[11] = test system: NDUFB8, SDHB, UQCRC2, ATP5A in renal cortex; test: Nanoparticle dose selection: renal cortical ETC proteins after 1 week of dosing; conditions: BTBR WT mice
Protocol: The FFD(NP) dosage and frequency was determined using BTBR wild type mice (BTBR T^+ Itpr3^tf/J) (The Jackson Laboratory, Bar Harbor, ME). […] The Veh(Sal) group was given intraperitoneal injections of normal saline daily. The Veh(NP) group was given 60 mg/kg nanoparticles injected via lateral tail vein 2× per week. […] After eight days, mice were weighed, euthanized and kidneys were extracted and snap-frozen in liquid nitrogen.
Protein was extracted from renal cortical tissue using radioimmunoprecipitation assay (RIPA) buffer (50 mM Tris-HCl, 150 mM NaCl, 0.1% SDS, 0.5% sodium deoxycholate and 1% Triton X-100, pH 7.4) with protease inhibitor cocktail (1:100), 1 mM sodium fluoride, and 1 mM sodium orthovanadate (Sigma Aldrich). Equal protein quantities (10 μg) were loaded onto 4-15% SDS-PAGE gels, resolved by gel electrophoresis, and then transferred onto nitrocellulose membranes. Membranes were blocked in 5% milk in tris-buffered saline/tween 20, incubated at a temperature of 4° C. for 18-24 h with primary and secondary antibodies (Abcam). Bound antibodies were visualized using enhanced chemiluminescence (Thermo Scientific, Waltham, MA) and the GE ImageQuant LAS400 Biomolecular Imaging System (GE Healthcare, Marlborough, MA).

[12] = ventricular wall, 8 weeks of treatment

In the case of CCN1C(=CC=CC=Cc2sc3ccccc3[n+]2CC)Sc2ccccc21.[I-] [DEDC, 3,3′-diethylthiadicarbocyanine iodide], the “intracellular fluorescence in RPTCs (uptake)” value ([1]; 0.1 mg/mL DEDC(NP)s or equivalent free dye, 2 h) is reported as “minimal”.

In the case of CN(C)CCCN1c2ccccc2Sc2ccc(Cl)cc21 [chlorpromazine, chlorpromazine hydrochloride], the “effect of inhibitor pretreatment on DEDC(NP) uptake by RPTCs” value ([1]; 30 min preincubation) is reported as “no observable decline in uptake”.

For COc1ccc(CC(C)NCC(O)c2ccc(O)c(NC=O)c2)cc1 (centres unmarked) [formoterol, Formoterol fumarate dihydrate], the “protein expression of mitochondrial biogenesis markers in left ventricle” value [2] is listed as “Elevated protein expression was significant”, the “increase in heart rate from baseline” value ([3]; immediately following systemic dosing) is listed as 100-150 bpm and the “mean arterial pressure (MAP)” value ([3]; intravenous administration, similar doses) is listed as “significant decrease in mean arterial pressure”. The “lowest dose at which heart rate effect was seen” value ([3]; rat, in vivo) was 3 µg/kg, the “persistence of heart rate increase” value ([3]; rat, in vivo) was “up to 4 hours” and the “decrease in diastolic blood pressure” value [4] was 19 mmHg. For the same compound, the “decrease in mean arterial pressure (MAP)” value [4] was 16 mmHg, the “heart rate elevation above the vehicle group” value [4] was 198 bpm and the “heart rate increase vs vehicle” value [4] was 65%. For the same compound, the “viability of proximal tubule cells” value [5] was “not significantly decreased”, the “toxicity to RPTCs” value [6] was “non-toxic” and the “focal myocardial fibrosis / collagen accumulation” value ([7]; 8 weeks of treatment) was “significant focal”. The “probability of survival to 12 weeks of age” value ([7]; BTBR WT mice) was 38%, the “heart weight normalized to respective Veh(Sal) controls” value ([7]; BTBR WT or BTBR ob/ob) was 1.3 fold and the “probability of surviving to 12 weeks of age” value ([7]; BTBR ob/ob mice) was 13%. The “diffuse interstitial trichrome positive area elevation” value [7, 12] was 1.6 fold, the “perivascular trichrome positive area elevation” value [7, 12] was 3.7 fold and the claudin-5 expression [8] was 50 % of sham. The solubility at 24 h ([9]; organic solvent or mixture, Formoterol Solubility, ACN) was 5 ± 1 µg/mL, the solubility at 24 h ([9]; organic solvent or mixture, Formoterol Solubility, Acetone) was 63 ± 4 µg/mL and the solubility at 24 h ([9]; organic solvent or mixture, Formoterol Solubility, Chloroform) was 2 ± 1 µg/mL. The solubility at 24 h ([9]; organic solvent or mixture, Formoterol Solubility, DCM) was 1 ± 0.4 µg/mL, the solubility at 24 h ([9]; water, water solubility) was 1160 ± 20 µg/mL and the “Formoterol Solubility” value ([9]; Acetone, fumarate dihydrate) was 51 ± 4 µg/mL. The “solubility in non-ionic surfactant solutions” value ([9]; PVA and Pluronic F127, 0.1% to 5% in aqueous solution) was “remains unchanged”, the “solubility in water:alcohol mixtures” value ([9]; ethanol and methanol volume fraction) was “increased with increasing volume fraction” and the “solubility in water at various pH” value ([9]; pH adjusted with HCl or NaOH) was “increasing solubility in highly basic or acidic conditions”. For the same compound, the “decrease in mean arterial pressure (MAP)” value [10] was 18%, the “heart rate increase from VS” value [10] was 1.5 fold and the weight gain [11] was “no differences in weight gain amongst groups”.

With COC(=O)Nc1nc2ccc(C(=O)c3cccs3)cc2[nH]1 [nocodazole] the “effect of inhibitor pretreatment on DEDC(NP) uptake by RPTCs” value ([1]; 30 min preincubation) was “no observable decline in uptake”.

For CCC(C)(C)C(=O)O[C@H]1C[C@@H](C)C=C2C=C[C@H](C)[C@H](CC[C@@H]3C[C@@H](O)CC(=O)O3)[C@H]21 [simvastatin], the “inhibitor concentration at which decrease in nanoparticle uptake starts” value ([1]; 30 min preincubation) was 1 µM and the “inhibitor concentration giving complete reduction in intracellular fluorescence intensity” value ([1]; 30 min preincubation) was 100 µM.
